Data taken from patent US9101640B2, “Use of Danshensu, Notoginsenoside R1 or their combination in preparation of medicaments for preventing and treating diseases caused by microcirculation disorder” (Tasly Pharmaceutical Group Co., Ltd., priority 2009, dated 2015).
“Also recorded” adds a separate entry of the source.

Tests used:
Format in all cases: in vivo
[1] = test system: leukocytes emigrated from the mesenteric venules; assay: Counting of leukocytes emigrated from venules after I/R; details: rat mesenteric I/R
Description: (§1) The rats were anesthetized by intraperitoneal injection of pentobarbital sodium (30 mg/kg body weight (BW)). PE venous cannulas (#3) were cannulated into the right jugular of the rats and detained. The abdomen of each rat was incised in a length of 20-30 mm along the midline. The ileum near the ileocecal junctions was gently taken out and unfolded onto the object stage mounted with glass slides. The unfolded mesenteries were continuously dripped with Krebs-Ringer buffering solution at 37° C. The microcirculatory dynamics of the mesenteries was observed under white light (12V, 100 W) using an inverted biomicroscope (Diaphot TMD-2S, Nikon, Tokyo) placed in the thermostat at 37° C. Observation sites were selected under 20× object lens, and a video recording system with a time-displaying function was used to record what had been observed on S-VHS tape and preserved. […] Normal saline was administrated at 20 min before ischemia until the end of the observation by continuously intravenous drip via jugular at a dosage of 5 mg/kg/h. PE cannulas were used to ligate non-circulatory mesenteric arteries and veins, so as to observe the arteries and veins for 10 min, and then the ligation was lifted. Time was adjusted to zero and the microcirculatory dynamics under the same visual field was continuously observed for 60 min.
(§2) DLA was administrated at 20 min before ischemia until the end of the observation by continuously intravenous drip via jugular at a dosage of 5 mg/kg/h.
(§3) R1 was administrated at 20 min before ischemia until the end of the observation by continuously intravenous drip via jugular at a dosage of 5 mg/kg/h.
(§4) The combination of DLA and R1 in a weight ratio of 4:1 was administrated at 20 min before ischemia until the end of the observation by continuously intravenous drip via jugular at a dosage of 5 mg/kg/h.
(§5) The combination of DLA and R1 in a weight ratio of 1:1 was administrated at 20 min before ischemia until the end of the observation by continuously intravenous drip via jugular at a dosage of 5 mg/kg/h. […]
(§6) Wherein, 6 rats in each group were taken out, these rats were used for observing the following aspects: the venular diameters; leukocytes rolling, adhesion, and emigration and DHR fluorescence intensities of the venular walls. […]
(§7) Microcirculatory dynamics was continuously recorded using an inverted biomicroscope […] recording system (CC-090, Flovel, Tokyo) and SIT fluorescent camera (C-2400-08, Hamamatsu Photonics, Hamamatsu).
The number of the leukocytes emigrated from the mesenteric venules was observed and counted from the replayed images at the following time points: before ischemia, and 1 min, 10 min, 20 min, 30 min, 40 min, 50 min and 60 min after the beginning of the reperfusion.

[2] = test system: leukocytes adhered to the mesenteric venules; assay: Counting of leukocytes adhered to venular walls after I/R; details: rat mesenteric I/R
Description: as §1, §2, §3, §4, §5, §6, §7
The leukocytes adhered to the venules which stayed at one site on the venular walls for at least 30 s the adherent leukocytes) was counted from the replayed images at the following time points: before ischemia, and 1 min, 10 min, 20 min, 30 min, 40 min, 50 min and 60 min after the beginning of the reperfusion. […]

[3] = test system: plasma albumin leakage from the mesenteric venules; assay: FITC-labeled albumin leakage from venules after I/R; details: rat mesenteric I/R; for inhibition of the plasma albumin leakage from the venules after reperfusion: post-administration, 5 mg/kg/h continuous i.v. drip from 20 min after ischemia (DLA: 10 min after I/R); for inhibition of the plasma albumin leakage from the venules after I/R: pre-administration, 5 mg/kg/h continuous i.v. drip from 20 min before ischemia
Description: as §1, §2, §3, §4
The combination of DLA and R1 in a weight ratio of 1:1 was administrated at 20 min before ischemia until the end of the observation by continuously intravenous drip via jugular at a dosage of 5 mg/kg/h.
The combination of DLA and R1 in a weight ratio of 1:4 was administrated at 20 min before ischemia until the end of the observation by continuously intravenous drip via jugular at a dosage of 5 mg/kg/h.
DLA was administrated at 10 min after I/R until the end of the observation by continuously intravenous drip via jugular at a dosage of 5 mg/kg/h. […]
as §6
Microcirculatory dynamics was continuously recorded using an inverted biomicroscope […] recording system (CC-090, Flovel, Tokyo) and SIT fluorescent camera (C-2400-08, Hamamatsu Photonics, Hamamatsu). […]

[4] = post-administration, 5 mg/kg/h continuous i.v. drip from 20 min after ischemia (DLA: 10 min after I/R)
[5] = pre-administration, 5 mg/kg/h continuous i.v. drip from 20 min before ischemia

**Q.** `CC(C)=CCC[C@](C)(O[C@@H]1O[C@H](CO)[C@@H](O)[C@H](O)[C@H]1O)[C@H]1CC[C@]2(C)[C@@H]1[C@H](O)C[C@@H]1[C@@]3(C)CC[C@H](O)C(C)(C)[C@@H]3[C@@H](O[C@@H]3O[C@H](CO)[C@@H](O)[C@H](O)[C@H]3O[C@@H]3OC[C@@H](O)[C@H](O)[C@H]3O)C[C@]12C` [R1, Notoginsenoside R1] was tested. Which “inhibition of the emigration of leukocytes from the mesenteric venules after I/R” value [1, 4] did it give?
**A.** The value was “had significant inhibitory effects; also recorded: can inhibit”.

**Q.** What about the “inhibition of the emigration of leukocytes from the mesenteric venules after I/R” value [1, 5] of the same compound?
**A.** Its value is “had significant inhibitory effects; also recorded: can inhibit”.

**Q.** And the “inhibition of the increase in the number of leukocytes adhered to the mesenteric venules caused by I/R” value [2, 4]?
**A.** The value was “had significant inhibitory effects; also recorded: can inhibit”.

**Q.** What about the “inhibition of the increase in the number of leukocytes adhered to the mesenteric venules caused by I/R” value [2, 5] of the same compound?
**A.** The value was “had significant inhibitory effects; also recorded: can inhibit”.

**Q.** And the “inhibition of the plasma albumin leakage from the venules after reperfusion” value [3]?
**A.** The value was “had significant inhibitory effects; also recorded: can inhibit”.

**Q.** What about the “inhibition of the plasma albumin leakage from the venules after I/R” value [3] of the same compound?
**A.** Its value is “had significant inhibitory effects; also recorded: can inhibit”.

**Q.** What does the source list for `O=C(O)C(O)Cc1ccc(O)c(O)c1` (stereo not drawn) [DLA, 3,4-dihydroxyphenyl lactic acid]?
**A.** inhibition of the emigration of leukocytes from the mesenteric venules after I/R [1, 4]: had significant inhibitory effects; also recorded: has the same effects as those of the pre-administration; inhibition of the emigration of leukocytes from the mesenteric venules after I/R [1, 5]: had significant inhibitory effects; also recorded: can inhibit; inhibition of the increase in the number of leukocytes adhered to the mesenteric venules caused by I/R [2, 4]: had significant inhibitory effects; also recorded: has the same effects as those of the pre-administration; inhibition of the increase in the number of leukocytes adhered to the mesenteric venules caused by I/R [2, 5]: had significant inhibitory effects; also recorded: can inhibit; inhibition of the plasma albumin leakage from the venules after reperfusion [3]: had significant inhibitory effects; also recorded: has the same effects as those of the pre-administration; inhibition of the plasma albumin leakage from the venules after I/R [3]: had significant inhibitory effects; also recorded: can inhibit
